Data as given in PMC2954059 (Journal of medicinal chemistry, 2010).
Where two headings read alike, the source gives them in different places. Marks after values point to notes of the source that are not given here. One block for each compound: values may come before it.

Experiments:
[1] = Concentrations of 1 in mouse serum and tissue samples by LC-MS/MS; format: in vivo, C57BL/6 mice
[2] = format: in vivo, C57BL/6 mice; settings: 24 mg/kg subcutaneous; for Concentration in the mouse brain: N = 3; for Concentration observed in brain, in molar terms: mouse brain, the quantified mouse (4a 8 h, 4d 2 h)
[3] = target: T1, Calpain I from porcine erythrocytes (Sus scrofa, UniProt P35750); test: Calpain I inhibition, fluorogenic Suc-Leu-Tyr-AMC assay, Ki by Dixon plots
T1 sequence (P35750 1-714): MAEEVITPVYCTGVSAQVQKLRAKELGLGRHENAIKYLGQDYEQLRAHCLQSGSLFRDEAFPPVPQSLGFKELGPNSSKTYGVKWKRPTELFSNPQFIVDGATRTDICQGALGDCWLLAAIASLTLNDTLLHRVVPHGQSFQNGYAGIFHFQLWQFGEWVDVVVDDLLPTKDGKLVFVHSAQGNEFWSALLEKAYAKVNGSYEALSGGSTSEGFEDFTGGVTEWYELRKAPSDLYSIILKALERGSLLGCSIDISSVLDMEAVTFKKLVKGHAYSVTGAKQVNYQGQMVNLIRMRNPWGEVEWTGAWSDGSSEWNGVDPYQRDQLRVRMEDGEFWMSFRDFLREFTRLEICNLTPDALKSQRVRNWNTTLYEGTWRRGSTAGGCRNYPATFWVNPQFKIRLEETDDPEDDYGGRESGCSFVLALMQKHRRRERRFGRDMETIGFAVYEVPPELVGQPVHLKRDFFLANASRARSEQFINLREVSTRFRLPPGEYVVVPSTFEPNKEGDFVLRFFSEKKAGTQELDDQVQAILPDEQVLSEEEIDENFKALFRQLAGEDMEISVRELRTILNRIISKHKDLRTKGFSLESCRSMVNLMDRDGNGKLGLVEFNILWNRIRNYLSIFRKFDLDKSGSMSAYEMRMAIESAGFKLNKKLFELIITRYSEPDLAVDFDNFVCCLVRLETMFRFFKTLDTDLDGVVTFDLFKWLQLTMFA
T1 sequence (P04574 1-266 partner): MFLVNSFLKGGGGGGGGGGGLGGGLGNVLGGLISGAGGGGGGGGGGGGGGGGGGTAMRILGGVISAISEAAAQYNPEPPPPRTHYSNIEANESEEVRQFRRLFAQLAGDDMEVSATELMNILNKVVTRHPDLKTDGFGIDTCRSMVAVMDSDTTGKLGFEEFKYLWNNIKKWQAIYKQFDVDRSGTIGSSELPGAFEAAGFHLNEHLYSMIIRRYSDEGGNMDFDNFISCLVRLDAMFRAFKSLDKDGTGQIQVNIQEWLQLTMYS

[4] = target: T2, calpain II from porcine kidney (Sus scrofa, UniProt A6YNL5); test: Calpain II inhibition, fluorogenic Suc-Leu-Tyr-AMC assay, Ki by Dixon plots; format: biochemical; settings: selectivity calpain I over calpain II
T2 sequence (A6YNL5 20-700): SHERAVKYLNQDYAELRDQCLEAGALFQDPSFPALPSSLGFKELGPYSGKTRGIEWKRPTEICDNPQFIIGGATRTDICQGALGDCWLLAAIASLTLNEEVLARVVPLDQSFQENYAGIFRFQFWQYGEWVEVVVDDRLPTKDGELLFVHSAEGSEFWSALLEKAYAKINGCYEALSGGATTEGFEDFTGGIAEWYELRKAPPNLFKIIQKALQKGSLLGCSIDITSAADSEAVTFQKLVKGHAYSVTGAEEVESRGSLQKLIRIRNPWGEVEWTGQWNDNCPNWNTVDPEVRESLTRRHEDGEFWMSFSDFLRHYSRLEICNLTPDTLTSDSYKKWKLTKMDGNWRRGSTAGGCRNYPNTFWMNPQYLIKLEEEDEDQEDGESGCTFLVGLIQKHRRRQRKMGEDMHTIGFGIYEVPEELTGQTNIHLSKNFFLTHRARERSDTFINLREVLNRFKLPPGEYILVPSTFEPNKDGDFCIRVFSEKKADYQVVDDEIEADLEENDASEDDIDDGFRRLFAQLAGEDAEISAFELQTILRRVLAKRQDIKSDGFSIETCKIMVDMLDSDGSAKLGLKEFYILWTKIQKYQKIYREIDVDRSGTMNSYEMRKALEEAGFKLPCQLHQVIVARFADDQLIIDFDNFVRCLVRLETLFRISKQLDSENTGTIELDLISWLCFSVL
T2 sequence (P04574 1-266 partner): T1 sequence (P04574 1-266 partner)

[5] = target: Cathepsin B from human liver (Homo sapiens, UniProt P07858); test: Cathepsin B inhibition, fluorogenic Cbz-Arg-Arg-AMC assay, Ki by Dixon plots; format: biochemical

Compound: CCC(NC(=O)[C@H](CC(C)C)NC(=O)OCc1ccccc1)C(=O)C(=O)NCCCN1CCOCC1 (stereo partly drawn) [Compound 1, Cbz-Leu-D,L-Abu-CONH-(CH2)3-morpholine]
concentration at 1 h ([1]; female, C57BL/6, mouse, liver, heart, kidney, spleen, other: subcutaneous or intravenous, 24 mg/kg): > 500 ng/g | Bioavailability via subcutaneous or oral administration ([1]; mice, 24 mg/kg): good | Detection in the brain ([1]; mice, 24 mg/kg subcutaneous, intravenous or oral): could not be detected

Compound: CCC(NC(=O)[C@H](CC(C)C)NC(=O)OCc1ccccc1)C(=O)C(=O)NCCCn1cnc2c(N)ncnc21 (stereo partly drawn) [Compound 4a, 3-(Benzyloxycarbonyl-L-leucylamino)-N-(3-(6-amino-9H-purin-9-yl)propyl)-2-oxopentanamide]
Concentration in the mouse brain ([2]; 8 hour, numeric value from one mouse, other two NQ): 1.17 ± 0.01 ^b µg/g tissue | Concentration observed in brain, in molar terms [2]: approximately 2 µM

Compound: CCC(NC(=O)[C@H](CC(C)C)NC(=O)OCc1ccccc1)C(=O)C(=O)NCCCn1ccc(N)nc1=O (stereo partly drawn) [Compound 4c]
fold less potent than the adenine derivatives [3]: 3- to 8 fold

Compound: CCC(NC(=O)[C@H](CC(C)C)NC(=O)OCc1ccccc1)C(=O)C(=O)NCCCN1CCN(C)CC1 (stereo partly drawn) [Compound 4d, 3-(Benzyloxycarbonyl-L-leucylamino)-N-(3-(4-methylpiperazin-1-yl)propyl)-2-oxopentanamide]
Concentration in the mouse brain ([2]; 1 hour): could be detected | Concentration in the mouse brain ([2]; 2 hour, numeric value from one mouse, other two NQ): 1.14 ± 0.02 ^b µg/g tissue | Concentration observed in brain, in molar terms [2]: approximately 2 µM

Compound: COc1nc(N)c2ncn(CCCNC(=O)C(=O)C(Cc3ccccc3)NC(=O)[C@H](CC(C)C)NC(=O)OCc3ccccc3)c2n1 (stereo partly drawn) [Compound 5b, 3-(Benzyloxycarbonyl-L-leucylamino)-N-(3-(6-amino-2-methoxy-9H-purin-9-yl)propyl)-2-oxophenylbutanamide]
fold less potent on calpain II than on calpain I [4]: 5 fold

Compound: CC(C)C[C@H](NC(=O)OCc1ccccc1)C(=O)NC(Cc1ccccc1)C(=O)C(=O)NCCCN(C)C (stereo partly drawn) [Compound 5e, 3-(Benzyloxycarbonyl-L-leucylamino)-N-(3-(dimethylamino)propyl)-2-oxophenylbutanamide]
fold less potent on calpain II than on calpain I [4]: 3 fold | selectivity for calpain I and calpain II versus cathepsin B [5]: good selectivity

Now from value to compound:

selectivity for calpain I and calpain II versus cathepsin B [5]: equally potent | fold less potent than the adenine derivatives [3]: 3- to 8 fold
Compound: CC(C)C[C@H](NC(=O)OCc1ccccc1)C(=O)NC(Cc1ccccc1)C(=O)C(=O)NCCCn1ccc(N)nc1=O (stereo partly drawn) [Compound 5c]

selectivity for calpain I and calpain II versus cathepsin B [5]: good selectivity
Compound: CC(C)C[C@H](NC(=O)OCc1ccccc1)C(=O)NC(Cc1ccccc1)C(=O)C(=O)NCCCN1CCN(C)CC1 (stereo partly drawn) [Compound 5d, 3-(Benzyloxycarbonyl-L-leucylamino)-N-(3-(4-methylpiperazin-1-yl)propyl)-2-oxophenylbutanamide]
